One experiment concerns the target T1, Ron (h) (Homo sapiens, UniProt Q04912).
T1 construct: purchased
The experiment is described as follows: Enzymatic activity assay, Ron (h) kinase, [γ-33P]-ATP. In kind it is biochemical. Particulars: 10 μM [γ-33P]-ATP, 40 min, room temperature; read-out: Inhibitory Activity on Ron (h) kinase, IC50. Here is the method:
Test samples: the compounds of the present invention, having structures and preparation methods shown above.
(1) Preparation of Compound Stock Solutions
Compounds were each dissolved in 100% DMSO to prepare stock solutions with a maximum concentration of 500 μM.
(2) Preparation of Compound Working Solutions
The compound stock solutions were diluted to final concentrations of 500 μM, 150 μM, 50 μM, 15 μM, 5 μM, 1.5 μM, 0.5 μM, 0.15 μM and 0.05 μM to prepare compound working solutions (50×).
(3) Preparation of Different Enzymatic Reaction Solutions
Ron (h) enzyme was dissolved in a mixture of 8 mM MOPS (pH 7.0), 0.2 mM EDTA and 250 μM GGMEDIYFEFMGGKKK to prepare an enzyme solution with a final concentration of 40.4 nM. An Mg/ATP mixture of 10 mM magnesium acetate and 10 μM [γ-^33P]-ATP was used to activate the enzymatic reaction.
The compound working solutions were added to a 384-well plate, with final concentrations of 10000 nM, 3000 nM, 1000 nM, 300 nM, 100 nM, 30 nM, 10 nM, 3 nM and 1 nM, respectively, and then different enzymatic reaction solutions prepared according to the above conditions were added. The reaction solutions were incubated at room temperature for 40 min, and then 0.5% phosphoric acid solutions were added to terminate the reaction. 10 μL of the reaction solution was added dropwise to P30 filter paper which was washed 4 times with a 0.425% phosphoric acid solution and once with methanol and then placed in a scintillation counter for detection. Gray analysis was performed on the results with Image J software, and IC50 values were calculated with GraphPad 5.0 software.

The next experiment has as its target T2, H1299 cell pMer (Homo sapiens, UniProt Q12866).
T2 construct: endogenous in cells; host or cells: H1299
T2 sequence (Q12866 21-999): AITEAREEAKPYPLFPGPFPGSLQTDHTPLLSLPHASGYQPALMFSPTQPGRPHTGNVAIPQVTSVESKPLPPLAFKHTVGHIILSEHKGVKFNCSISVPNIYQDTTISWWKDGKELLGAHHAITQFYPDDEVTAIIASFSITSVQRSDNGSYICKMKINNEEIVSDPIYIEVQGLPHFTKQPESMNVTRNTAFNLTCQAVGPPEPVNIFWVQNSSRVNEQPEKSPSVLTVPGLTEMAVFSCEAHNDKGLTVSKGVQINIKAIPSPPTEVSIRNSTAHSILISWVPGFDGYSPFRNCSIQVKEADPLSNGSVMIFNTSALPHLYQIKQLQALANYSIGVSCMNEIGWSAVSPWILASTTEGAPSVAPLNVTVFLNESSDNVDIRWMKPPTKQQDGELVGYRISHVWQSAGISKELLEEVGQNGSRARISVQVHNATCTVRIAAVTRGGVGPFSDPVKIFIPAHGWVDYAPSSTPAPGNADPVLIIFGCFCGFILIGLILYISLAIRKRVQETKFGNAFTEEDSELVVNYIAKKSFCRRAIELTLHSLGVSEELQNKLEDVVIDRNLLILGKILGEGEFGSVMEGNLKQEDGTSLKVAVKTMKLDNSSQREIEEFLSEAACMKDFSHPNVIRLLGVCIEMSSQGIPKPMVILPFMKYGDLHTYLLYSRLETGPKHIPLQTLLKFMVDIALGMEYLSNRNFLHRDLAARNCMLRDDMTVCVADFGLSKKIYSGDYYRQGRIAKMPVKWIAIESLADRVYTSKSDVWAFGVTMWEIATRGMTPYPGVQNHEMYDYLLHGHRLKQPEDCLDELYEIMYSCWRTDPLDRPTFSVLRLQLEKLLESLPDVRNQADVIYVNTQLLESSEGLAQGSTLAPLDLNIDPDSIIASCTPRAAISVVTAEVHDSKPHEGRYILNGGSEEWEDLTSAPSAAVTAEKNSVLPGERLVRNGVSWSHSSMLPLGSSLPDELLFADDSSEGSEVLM
Briefly: Inhibitory activity on cell pMer (H1299 cells, Human MerMab stimulation, Western Blot). The format is cell-based. Particulars: Human MerMab 200 ng/mL, tested at 0.37, 1.1, 3.3 and 10 nM. Here is the method: H1299 is a non-small cell lung cancer cell.
Test samples: the compounds of the present invention, having structures shown above.
Test instruments: protein electrophoresis apparatus (made by Bio Rad), membrane transfer apparatus (made by Bio Rad), exposure apparatus (made by Tanon), and CO2 cell incubator (made by Thermo).
H1299 cells were inoculated into a 6-well plate (containing 10% FBS 1640 medium, 5×10^5 cells per well) and adherently cultivated at 37° C. and 5% CO2 for 18 h. The cells were starved overnight, and compounds with different concentrations were added. The compounds had final concentrations of 0.37 nM, 1.1 nM, 3.3 nM and 10 nM, with DMSO having a final concentration of 1‰. There was a medium containing 10‰ DMSO in the negative control well. The cells were incubated at 37° C. and 5% CO2 for 60 min, and then Human MerMab (R&D, final concentration: 200 ng/mL) was added to each well. The cells were further incubated for 60 min, and then the total protein of the cells was extracted for Western Blot experiment. Gray analysis was performed on the results with Image J software, and IC50 values were calculated with GraphPad 5.0 software. The inhibitory activities of the compounds on cell pMer were detected.

T1 sequence (Q04912 25-1400): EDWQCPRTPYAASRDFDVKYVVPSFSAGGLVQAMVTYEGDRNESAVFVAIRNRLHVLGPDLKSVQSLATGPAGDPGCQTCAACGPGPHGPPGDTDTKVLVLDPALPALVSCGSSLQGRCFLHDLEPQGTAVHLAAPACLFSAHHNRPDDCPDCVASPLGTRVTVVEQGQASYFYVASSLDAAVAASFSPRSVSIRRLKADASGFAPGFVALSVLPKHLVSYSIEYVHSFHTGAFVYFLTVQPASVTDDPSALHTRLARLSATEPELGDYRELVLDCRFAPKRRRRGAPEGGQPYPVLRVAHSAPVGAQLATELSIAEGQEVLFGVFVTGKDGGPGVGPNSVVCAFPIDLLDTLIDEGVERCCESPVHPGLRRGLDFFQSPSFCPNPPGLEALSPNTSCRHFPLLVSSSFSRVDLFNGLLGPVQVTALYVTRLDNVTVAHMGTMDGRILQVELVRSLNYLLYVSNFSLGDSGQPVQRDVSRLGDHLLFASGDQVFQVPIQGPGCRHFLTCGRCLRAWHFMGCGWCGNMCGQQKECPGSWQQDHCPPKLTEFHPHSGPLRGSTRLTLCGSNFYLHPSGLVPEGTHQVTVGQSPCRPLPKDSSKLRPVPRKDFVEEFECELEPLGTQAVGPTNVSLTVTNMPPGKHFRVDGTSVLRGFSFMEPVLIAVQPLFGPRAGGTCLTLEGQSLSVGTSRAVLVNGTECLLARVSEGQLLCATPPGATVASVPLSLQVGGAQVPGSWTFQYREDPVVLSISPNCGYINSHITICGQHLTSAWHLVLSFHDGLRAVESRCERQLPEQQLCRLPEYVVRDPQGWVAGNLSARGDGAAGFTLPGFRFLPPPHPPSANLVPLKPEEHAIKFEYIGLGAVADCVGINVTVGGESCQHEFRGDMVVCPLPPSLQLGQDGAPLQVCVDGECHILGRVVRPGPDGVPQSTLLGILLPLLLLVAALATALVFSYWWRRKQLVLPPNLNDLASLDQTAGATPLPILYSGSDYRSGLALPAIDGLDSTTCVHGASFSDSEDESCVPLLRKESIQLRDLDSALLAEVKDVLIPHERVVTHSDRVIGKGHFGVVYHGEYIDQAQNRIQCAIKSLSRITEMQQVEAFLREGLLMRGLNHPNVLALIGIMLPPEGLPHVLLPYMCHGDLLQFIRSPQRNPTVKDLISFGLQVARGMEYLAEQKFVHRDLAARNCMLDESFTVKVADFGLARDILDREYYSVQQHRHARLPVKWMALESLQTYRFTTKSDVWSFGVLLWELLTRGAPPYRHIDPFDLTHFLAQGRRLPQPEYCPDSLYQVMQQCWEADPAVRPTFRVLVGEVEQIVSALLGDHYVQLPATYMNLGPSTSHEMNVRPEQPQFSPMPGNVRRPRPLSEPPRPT

For orientation: IC50 means the concentration at which inhibition is half-maximal. Consider `CC(C)n1cc(-c2ccc(F)cc2)c(=O)c(C(=O)Nc2ccc(Oc3ccnc(N)c3Cl)cn2)n1` [Compound 11, N-(5-((2-amino-3-chloropyridin-4-yl)oxy)pyridin-2-yl)-5-(4-fluorophenyl)-1-isopropyl-4-oxo-1,4-dihydropyridazine-3-carboxamide], for which the results for the IC50 on Ron (h) and against H1299 cell pMer were 2 nM and 1.1 nM, respectively.

In the case of `CC(C)n1cc(-c2ccc(F)cc2)c(=O)c(C(=O)Nc2ncc(Oc3ccnc(N)c3Cl)cn2)n1` [Compound 12, N-(5-((2-amino-3-chloropyridin-4-yl)oxy)pyrimidin-2-yl)-5-(4-fluorophenyl)-1-isopropyl-4-oxo-1,4-dihydropyridazine-3-carboxamide], the IC50 is 19 nM on Ron (h) and 1.1 nM against H1299 cell pMer.

In the case of `CC(C)n1cc(-c2ccc(F)cc2)c(=O)c(C(=O)Nc2ccc(Oc3ccnc(N)c3Cl)nc2)n1` [Compound 13, N-(6-((2-amino-3-chloropyridin-4-yl)oxy)pyridin-3-yl)-5-(4-fluorophenyl)-1-isopropyl-4-oxo-1,4-dihydropyridazine-3-carboxamide], the IC50 on Ron (h) is 16 nM; against H1299 cell pMer it was 3.3 to 10 nM.

Take `Nc1nccc(Oc2ccc(NC(=O)c3nn(C4CC4)cc(-c4ccc(F)cc4)c3=O)nc2)c1Cl` [Compound 17, N-(5-((2-amino-3-chloropyridin-4-yl)oxy)pyridin-2-yl)-1-cyclopropyl-5-(4-fluorophenyl)-4-oxo-1,4-dihydropyridazine-3-carboxamide]: the IC50 on Ron (h) was 7 nM; against H1299 cell pMer, less than 1.1 nM.

Consider `Nc1nccc(Oc2cnc(NC(=O)c3nn(C4CC4)cc(-c4ccc(F)cc4)c3=O)nc2)c1Cl` [Compound 18, N-(5-((2-amino-3-chloropyridin-4-yl)oxy)pyrimidin-2-yl)-5-(4-fluorophenyl)-1-cyclopropyl-4-oxo-1,4-dihydropyridazine-3-carboxamide], for which the IC50 on Ron (h) was 14 nM; against H1299 cell pMer, 1.1 nM.

`Nc1nccc(Oc2ccc(NC(=O)c3nn(C4CC4)cc(-c4ccc(F)cc4)c3=O)cn2)c1Cl` [Compound 19, N-(6-((2-amino-3-chloropyridin-4-yl)oxy)pyridin-3-yl)-1-cyclopropyl-5-(4-fluorophenyl)-4-oxo-1,4-dihydropyridazine-3-carboxamide]: the IC50 on Ron (h) came out at 64 nM; against H1299 cell pMer it was 10 nM.

As to `Cn1cc(-c2ccc(F)cc2)c(=O)c(C(=O)Nc2ccc(Oc3ccnc(N)c3Cl)cn2)n1` [Compound 33, N-(5-((2-amino-3-chloropyridin-4-yl)oxy)pyridin-2-yl)-5-(4-fluorophenyl)-1-methyl-4-oxo-1,4-dihydropyridazine-3-carboxamide], the IC50 turned out to be 17 nM on Ron (h) and 3.3 nM at H1299 cell pMer.

`C=CCn1cc(-c2ccc(F)cc2)c(=O)c(C(=O)Nc2ccc(Oc3ccnc(N)c3Cl)cn2)n1` [Compound 35, 1-allyl-N-(5-((2-amino-3-chloropyridin-4-yl)oxy)pyridin-2-yl)-5-(4-fluorophenyl)-4-oxo-1,4-dihydropyridazine-3-carboxamide]: the IC50 at Ron (h) is 5 nM; against H1299 cell pMer it was 0.37 nM.

As to `C=CCn1cc(-c2ccc(F)cc2)c(=O)c(C(=O)Nc2ncc(Oc3ccnc(N)c3Cl)cn2)n1` [Compound 37], the IC50 on Ron (h) was 12 nM; against H1299 cell pMer, 3.3 nM.

In the case of `C=CCn1cc(-c2ccc(F)cc2)c(=O)c(C(=O)Nc2ccc(Oc3ccnc(N)c3Cl)nc2)n1` [Compound 39, 1-allyl-N-(6-((2-amino-3-chloropyridin-4-yl)oxy)pyridin-3-yl)-5-(4-fluorophenyl)-4-oxo-1,4-dihydropyridazine-3-carboxamide], the IC50 at Ron (h) was 12 nM; against H1299 cell pMer it was 3.3 to 10 nM.

For the origin of these results see US20220298146A1, “HETEROCYCLIC DERIVATIVE AND USE THEREOF” (Transthera Sciences (Nanjing), Inc., priority 2019, published 2022).
